Molecules are shown by their SMILES.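 Cells were grown in 96-well plates and exposed to each compound for 48 hours at five concentrations; endpoints were interpolated linearly between bracketing concentrations, or set to the highest concentration if not reached. At the GI50, growth is halved. The concentration for full growth arrest is given as TGI.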 Where only a bound is given, the exact number is not on record here.

Among the test systems are OVCAR-5 ovarian; HT29 colon; MOLT-4 leukemia; U251 CNS; CCRF-CEM leukemia; SK-MEL-5 melanoma; HL-60(TB) leukemia; DU-145 prostate; OVCAR-4 ovarian.
What all share (assay): inhibition of tumour cell growth, NCI panel, 48 h

For the molecule `COc1ccc(-c2nc(-c3cnccn3)n(C3OC(CO)C(O)C(O)C3O)n2)cc1` (configuration not stated), the TGI with OVCAR-5 ovarian, in the assay with HT29 colon, in the assay with MOLT-4 leukemia, in the assay on U251 CNS, in the assay with CCRF-CEM leukemia and in the assay with SK-MEL-5 melanoma was > 100 µM throughout. Further, the TGI in the assay with HL-60(TB) leukemia, in the assay with DU-145 prostate and with OVCAR-4 ovarian was > 100 µM throughout.

As for `CCCCCCOc1ccc(C(=N)N(CCCC)CCCC)c2ccccc12`, the GI50 in the assay with OVCAR-5 ovarian was 1.53 µM; in the assay with U251 CNS, 1.5 µM; in the assay with SK-MEL-5 melanoma, 1.52 µM; in the assay on HL-60(TB) leukemia, 1.81 µM; with DU-145 prostate it was 1.49 µM. In addition, the TGI in the assay on OVCAR-5 ovarian was 2.94 µM; in the assay with U251 CNS, 2.97 µM; with SK-MEL-5 melanoma, 2.85 µM; in the assay on HL-60(TB) leukemia it was 3.43 µM; in the assay with DU-145 prostate, 2.86 µM.

Turning to `CCOC(=O)/C(C#N)=C/N(CC)/N=C/c1ccccc1`, the TGI with OVCAR-5 ovarian, with HT29 colon, in the assay on MOLT-4 leukemia, in the assay with U251 CNS, with CCRF-CEM leukemia and in the assay on SK-MEL-5 melanoma was > 100 µM throughout. Besides, the TGI with HL-60(TB) leukemia, in the assay on DU-145 prostate and in the assay on OVCAR-4 ovarian was > 100 µM in each case.

With `O=C(/C=C/c1ccco1)c1cccc(C(=O)/C=C/c2ccco2)n1`, the TGI in the assay on OVCAR-5 ovarian was > 81.9 µM; in the assay on HT29 colon it was 37.4 µM; with MOLT-4 leukemia it was 6.25 µM; with U251 CNS, 22.6 µM; with SK-MEL-5 melanoma, > 100 µM; in the assay on HL-60(TB) leukemia, 0.417 µM. In addition, the TGI with DU-145 prostate and in the assay with OVCAR-4 ovarian was > 100 µM throughout.

As for `O=C1CC2(CCNCC2)C(=O)N1N1CCOCC1`, the TGI with OVCAR-5 ovarian, with HT29 colon, in the assay with MOLT-4 leukemia, with U251 CNS, in the assay on CCRF-CEM leukemia and in the assay on SK-MEL-5 melanoma was > 100 µM in each case. Further, the TGI in the assay on HL-60(TB) leukemia, in the assay on DU-145 prostate and in the assay on OVCAR-4 ovarian was > 100 µM each time.

On to `C=C1CC(Cn2cc(Br)c(=O)[nH]c2=O)(c2ccc(-c3ccccc3)cc2)OC1=O` (configuration not stated), for which the TGI with OVCAR-5 ovarian came to 15.6 µM; in the assay on HT29 colon it was 1.91 µM; in the assay with U251 CNS, 18.4 µM; in the assay on CCRF-CEM leukemia, 0.712 µM; in the assay with SK-MEL-5 melanoma, 2.55 µM; in the assay on DU-145 prostate, 4.59 µM. Moreover, the TGI with OVCAR-4 ovarian worked out at 4.64 µM.

Consider `C=CCOC(=O)CCCCCCCCCCCCCCCOC(=O)C1=C(CCC[C@@H](C)O[Si](C)(C)C(C)(C)C)NC(=O)N2[C@H](CC3(CC/C=C\[C@H](CC)O[Si](C(C)C)(C(C)C)C(C)C)OCCO3)CC[C@H]12`, for which the TGI in the assay with OVCAR-5 ovarian, in the assay with U251 CNS, in the assay on CCRF-CEM leukemia, in the assay with SK-MEL-5 melanoma, in the assay on DU-145 prostate and in the assay with OVCAR-4 ovarian was > 100 µM each time.

Turning to `CCCCCCOP(=O)(OCCCCCC)OC(C(=O)OC)C(F)(F)F` (configuration not stated), the TGI in the assay on OVCAR-5 ovarian, in the assay with HT29 colon, with MOLT-4 leukemia, in the assay on U251 CNS, with CCRF-CEM leukemia and in the assay on SK-MEL-5 melanoma was > 100 µM in each case. Besides, the TGI in the assay with HL-60(TB) leukemia, in the assay on DU-145 prostate and with OVCAR-4 ovarian was > 100 µM in each case.

Turning to `NS(=O)(=O)c1cc(S(N)(=O)=O)c(NC(=O)N(c2ccccc2)c2ccccc2)c(Cl)c1Cl`, the TGI in the assay with OVCAR-5 ovarian is > 100 µM; in the assay on HT29 colon, 48.2 µM; in the assay on MOLT-4 leukemia, 42 µM; in the assay with U251 CNS, > 100 µM; in the assay with CCRF-CEM leukemia it was 25.7 µM; with SK-MEL-5 melanoma it was 33.1 µM. In addition, the TGI in the assay on HL-60(TB) leukemia is 52 µM; in the assay on OVCAR-4 ovarian, > 100 µM.

Regarding `CC(=O)O[C@H]1C(=O)N(c2cc3c4ccccc4ccc3c3ccccc23)[C@@H]1c1ccccc1`, the TGI with OVCAR-5 ovarian is > 100 µM; in the assay with HT29 colon it was 6.98 µM; in the assay with MOLT-4 leukemia it was > 100 µM; with U251 CNS, > 100 µM; with CCRF-CEM leukemia, > 100 µM; with SK-MEL-5 melanoma, 67.1 µM. Moreover, the TGI was 43.9 µM in the assay with DU-145 prostate and 49.5 µM in the assay with OVCAR-4 ovarian.

As to `O=C(c1ccco1)C1CC(c2ccc3ccccc3c2O)=NN1c1ccc([N+](=O)[O-])cc1[N+](=O)[O-]` (configuration not stated), the TGI in the assay on OVCAR-5 ovarian was > 100 µM; in the assay on HT29 colon, 42.3 µM; in the assay on MOLT-4 leukemia, 11.4 µM; in the assay on U251 CNS, > 100 µM; in the assay on CCRF-CEM leukemia it was 10.6 µM; with DU-145 prostate, > 100 µM. In the assay on OVCAR-4 ovarian, the TGI is > 100 µM.

For the molecule `O=C1CSc2nnc(CCCCCCCCc3nnc4n3NC(=O)CS4)n2N1`, the TGI in the assay on OVCAR-5 ovarian was > 100 µM; in the assay on HT29 colon it was > 100 µM; in the assay on MOLT-4 leukemia, > 100 µM; with U251 CNS it was > 100 µM; in the assay with CCRF-CEM leukemia, 51.1 µM; in the assay with HL-60(TB) leukemia it was > 100 µM. Besides, the TGI with DU-145 prostate and with OVCAR-4 ovarian was > 100 µM in each case.

Turning to `c1ccc([P+](c2ccccc2)(c2ccccc2)c2ccc([P+](c3ccccc3)(c3ccccc3)c3ccccc3)cc2)cc1`, the TGI with OVCAR-5 ovarian, with HT29 colon, in the assay with MOLT-4 leukemia, in the assay on U251 CNS, with CCRF-CEM leukemia and with SK-MEL-5 melanoma was > 100 µM in each case. Also, the TGI with HL-60(TB) leukemia and in the assay with DU-145 prostate was > 100 µM in each case.

As for `CC(C)(C)OC(=O)N1CCc2c(n(C/C=C/c3ccccc3)[nH]c2=O)C1`, the TGI in the assay on HT29 colon, in the assay with MOLT-4 leukemia, in the assay on U251 CNS, in the assay with CCRF-CEM leukemia, with SK-MEL-5 melanoma and with HL-60(TB) leukemia was > 100 µM each time. Also, the TGI in the assay with DU-145 prostate and in the assay with OVCAR-4 ovarian was > 100 µM each time.

Take `O=S(=O)(O)C1CCC(O)C2[N-]CCCC21.O=S(=O)(O)C1CCC(O)C2[N-]CCCC21.[Zn+2]` (configuration not stated): the TGI was > 100 µM with OVCAR-5 ovarian; > 100 µM in the assay on HT29 colon; > 100 µM in the assay on MOLT-4 leukemia; > 100 µM in the assay on U251 CNS; > 100 µM in the assay on SK-MEL-5 melanoma; 51 µM in the assay with HL-60(TB) leukemia. Further, the TGI in the assay on DU-145 prostate and with OVCAR-4 ovarian was > 100 µM in each case.

The values are drawn from PubChem BioAssay (NCI).
